{
  "source": "patent US12540143B2",
  "about": "“Methods and compositions for targeted protein degradation” (Ranok Therapeutics (Hangzhou) Co. Ltd., priority 2019, dated 2026)",
  "key": {"BRD4": {"molecular_target": "T1, BRD4 (Homo sapiens, UniProt O60885)", "T1 construct": "endogenous in cells; host or cells: MV4-11", "assay": "BRD4 Degradation Flow Cytometry Assay in MV4-11 cells", "type": "cell-based", "conditions": "MV4-11 cells; for Percentage BRD4 degradation vs untreated: 24 hr, highest degradation percentage observed at concentrations between 40-1000 nM", "protocol": "Protein Degradation Flow Cytometry\n(§1) MV4-11 cells were plated in a 24-well tissue culture plate at a density of 350,000 cells/450 μL/well and incubated in 37° C./5% CO2 for 1 hr. Cells were then treated with compounds at various concentrations and incubated in 37° C./5% CO2 for 24 hr. Cells were harvested, washed once, counted and 200 μL of 1% paraformaldehyde/PBS was added and incubated for 15 min at room temperature. 200 μL of 1×PBS/0.4% Triton X-100 was added and incubated for 15 min at 4° C. Cells were washed three times and resuspended in 50 μL of 1×PBS/0.2% Triton X-100. 2 μL/10^6 cells of anti-BRD4 antibody (ABCAM, #128874) was added and mixed by pipetting up and down. Cells were incubated for 30 min at room temperature in the dark, washed three times and resuspended in 50 μL of 1×PBS/0.2% Triton X-100. Goat anti-rabbit IgG H&L antibody (1:2000 dilution) was added and mixed by pipetting up and down and incubated for 30 min at room temperature in the dark. Finally, cells were washed three times and resuspended in 200 μL of PBS for flow cytometric analysis."}, "MV4-11 cells": {"system": "MV4-11 cells", "assay": "MV4-11 Cytotoxicity Assay", "type": "cell-based, human", "conditions": "72 hr, CCK-8, read-out: MV4-11 cytotoxicity"}, "BRD3": {"molecular_target": "T2, BRD3 (Homo sapiens, UniProt Q15059)", "T2 construct": "endogenous in cells; host or cells: MV4-11", "T2 sequence (Q15059 whole entry)": "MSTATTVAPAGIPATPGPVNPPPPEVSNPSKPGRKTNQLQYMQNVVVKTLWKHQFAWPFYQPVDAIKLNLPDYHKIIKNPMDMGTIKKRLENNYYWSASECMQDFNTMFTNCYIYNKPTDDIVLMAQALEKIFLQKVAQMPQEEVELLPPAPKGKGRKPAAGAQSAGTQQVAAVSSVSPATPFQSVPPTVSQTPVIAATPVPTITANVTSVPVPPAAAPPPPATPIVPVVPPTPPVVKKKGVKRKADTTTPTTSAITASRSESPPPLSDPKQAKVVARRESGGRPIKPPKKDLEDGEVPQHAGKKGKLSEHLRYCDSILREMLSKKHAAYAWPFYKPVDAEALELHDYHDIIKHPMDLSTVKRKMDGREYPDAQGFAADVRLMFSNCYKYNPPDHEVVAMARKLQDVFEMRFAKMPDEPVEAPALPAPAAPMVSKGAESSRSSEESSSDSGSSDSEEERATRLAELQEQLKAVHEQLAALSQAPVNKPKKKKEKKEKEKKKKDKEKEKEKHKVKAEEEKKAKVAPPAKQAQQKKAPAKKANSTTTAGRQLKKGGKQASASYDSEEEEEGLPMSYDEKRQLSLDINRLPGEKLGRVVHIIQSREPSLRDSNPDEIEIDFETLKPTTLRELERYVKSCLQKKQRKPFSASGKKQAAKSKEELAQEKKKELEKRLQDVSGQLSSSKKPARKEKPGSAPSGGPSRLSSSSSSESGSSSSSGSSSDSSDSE", "assay": "BET Protein Family Degradation Flow Cytometry Assay (BRD3) in MV4-11 cells", "type": "cell-based", "conditions": "24 hr", "protocol": "as §1\n(§2) Similar western blotting experiments of for BRD2 and BRD3 were performed in MV4-11 cells using anti-BRD2 (Cell Signaling Technology, #139690) and anti-BRD3 (Cell Signaling Technology, #50818)."}, "BRD2": {"molecular_target": "T3, BRD2 (Homo sapiens, UniProt P25440)", "T3 construct": "endogenous in cells; host or cells: MV4-11", "T3 sequence (P25440 whole entry)": "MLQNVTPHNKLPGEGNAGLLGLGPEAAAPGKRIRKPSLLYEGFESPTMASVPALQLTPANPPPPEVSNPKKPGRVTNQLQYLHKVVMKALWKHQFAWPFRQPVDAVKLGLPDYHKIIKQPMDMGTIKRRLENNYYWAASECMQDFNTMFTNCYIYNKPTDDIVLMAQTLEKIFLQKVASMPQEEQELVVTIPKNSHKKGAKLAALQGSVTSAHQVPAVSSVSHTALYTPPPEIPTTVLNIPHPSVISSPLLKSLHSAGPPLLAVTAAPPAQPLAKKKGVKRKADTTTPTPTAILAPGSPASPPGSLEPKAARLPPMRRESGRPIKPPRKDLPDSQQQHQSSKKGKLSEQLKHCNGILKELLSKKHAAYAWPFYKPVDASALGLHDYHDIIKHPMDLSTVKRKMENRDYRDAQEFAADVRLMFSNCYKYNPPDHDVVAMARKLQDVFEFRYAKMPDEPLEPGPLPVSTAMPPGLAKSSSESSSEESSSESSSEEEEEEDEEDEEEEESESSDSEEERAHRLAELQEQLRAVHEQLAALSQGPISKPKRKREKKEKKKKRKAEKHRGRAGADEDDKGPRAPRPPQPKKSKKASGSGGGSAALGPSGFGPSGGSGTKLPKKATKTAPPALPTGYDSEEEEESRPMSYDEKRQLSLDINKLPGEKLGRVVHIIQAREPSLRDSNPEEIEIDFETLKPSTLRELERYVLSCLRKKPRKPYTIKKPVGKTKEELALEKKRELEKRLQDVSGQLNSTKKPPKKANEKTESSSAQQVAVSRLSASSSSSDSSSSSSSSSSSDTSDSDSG", "assay": "BET Protein Family Degradation Flow Cytometry Assay (BRD2) in MV4-11 cells", "type": "cell-based", "conditions": "24 hr", "protocol": "as §1, §2"}},
  "note": "Structures can show the parent of a compound that is named as a salt. Where two headings read alike, the source gives them in different places.",
  "data": [
    {"smiles": "CCc1cc(-c2nnc(O)n2-c2ccc(CN3CCN(CC4CCN(C(=O)C[C@@H]5N=C(c6ccc(Cl)cc6)c6c(sc(C)c6C)-n6c(C)nnc65)CC4)CC3)cc2)c(O)cc1O", "note": "[Compound 1, 2-((6S)-4-(4-chlorophenyl)-2,3,9-trimethyl-6H-thieno[3,2-f][1,2,4]triazolo[4,3-a][1,4]diazepin-6-yl)-1-(4-((4-(4-(3-(5-ethyl-2,4-dihydroxyphenyl)-5-hydroxy-4H-1,2,4-triazol-4-yl)benzyl)piperazin-1-yl)methyl)piperidin-1-yl)ethanone]", "values": [
      {"measurement": "Percentage BRD4 degradation vs untreated", "setting": "BRD4", "result": "A (Degradation > 50%)"}
    ]},
    {"smiles": "Cc1cc(-c2nnc(O)n2-c2ccc(CN3CCN(CC4CCN(C(=O)C[C@@H]5N=C(c6ccc(Cl)cc6)c6c(sc(C)c6C)-n6c(C)nnc65)CC4)CC3)cc2)c(O)cc1O", "note": "[Compound 9, 2-((6S)-4-(4-chlorophenyl)-2,3,9-trimethyl-6H-thieno[3,2-f][1,2,4]triazolo[4,3-a][1,4]diazepin-6-yl)-1-(4-((4-(4-(3-(2,4-dihydroxy-5-methylphenyl)-5-hydroxy-4H-1,2,4-triazol-4-yl)benzyl)piperazin-1-yl)methyl)piperidin-1-yl)ethanone, trifluoroacetic acid]", "values": [
      {"measurement": "Percentage BRD4 degradation vs untreated", "setting": "BRD4", "result": "B (10% < Degradation = 10-50%)"},
      {"measurement": "IC50", "setting": "MV4-11 cells; Homo sapiens, MV4-11", "result": "< 100", "unit": "nM"}
    ]},
    {"smiles": "Cc1sc2c(c1C)C(c1ccc(Cl)cc1)=N[C@@H](CC(=O)NCCc1ccc(-n3c(O)nnc3-c3cc(C(C)C)c(O)cc3O)cc1)c1nnc(C)n1-2", "note": "[Compound 39, 2-((6S)-4-(4-chlorophenyl)-2,3,9-trimethyl-6H-thieno[3,2-f][1,2,4]triazolo[4,3-a][1,4]diazepin-6-yl)-N-(4-(3-(2,4-dihydroxy-5-isopropylphenyl)-5-hydroxy-4H-1,2,4-triazol-4-yl)phenethyl)acetamide]", "values": [
      {"measurement": "Percentage BRD4 degradation vs untreated", "setting": "BRD4", "result": "C (Degradation < 10%)"},
      {"measurement": "IC50", "setting": "MV4-11 cells; Homo sapiens, MV4-11", "result": "< 100", "unit": "nM"}
    ]},
    {"smiles": "Cc1sc2c(c1C)C(c1ccc(Cl)cc1)=N[C@@H](CC(=O)NCC(=O)NCC1CCN(C(=O)C3CCN(Cc4ccc(-n5c(O)nnc5-c5cc(C(C)C)c(O)cc5O)cc4)CC3)CC1)c1nnc(C)n1-2", "note": "[Compound 46, (S)-2-(4-(4-chlorophenyl)-2,3,9-trimethyl-6H-thieno[3,2-f][1,2,4]triazolo[4,3-a][1,4]diazepin-6-yl)-N-(2-(((1-(1-(4-(3-(2,4-dihydroxy-5-isopropylphenyl)-5-hydroxy-4H-1,2,4-triazol-4-yl)benzyl)piperidine-4-carbonyl)piperidin-4-yl)methyl)amino)-2-oxoethyl)acetamide, trifluoroacetic acid]", "values": [
      {"measurement": "Percentage BRD4 degradation vs untreated", "setting": "BRD4", "result": "A (Degradation > 50%)"},
      {"measurement": "IC50", "setting": "MV4-11 cells; Homo sapiens, MV4-11", "result": "< 100", "unit": "nM"}
    ]},
    {"smiles": "CCN(CC)CCNC(=O)c1nnc(-c2cc(C(C)C)c(O)cc2O)n1-c1ccc(CN2CCN(CC3CCN(C(=O)C[C@@H]4N=C(c5ccc(Cl)cc5)c5c(sc(C)c5C)-n5c(C)nnc54)CC3)CC2)cc1", "note": "[Compound 118, (S)-4-(4-((4-((1-(2-(4-(4-chlorophenyl)-2,3,9-trimethyl-6H-thieno[3,2-f][1,2,4]triazolo[4,3-a][1,4]diazepin-6-yl)acetyl)piperidin-4-yl)methyl)piperazin-1-yl)methyl)phenyl)-N-(2-(diethylamino)ethyl)-5-(2,4-dihydroxy-5-isopropylphenyl)-4H-1,2,4-triazole-3-carboxamide, trifluoroacetic acid]", "values": [
      {"measurement": "IC50", "setting": "MV4-11 cells; Homo sapiens, MV4-11", "result": "< 100", "unit": "nM"}
    ]},
    {"smiles": "Cc1sc2c(c1C)C(c1ccc(Cl)cc1)=N[C@@H](CC(=O)N1CCC(CN3CCN(Cc4ccc(-n5c(C(=O)NC(C)C)nnc5-c5ccc(O)cc5O)cc4)CC3)CC1)c1nnc(C)n1-2", "note": "[Compound 119, (S)-4-(4-((4-((1-(2-(4-(4-chlorophenyl)-2,3,9-trimethyl-6H-thieno[3,2-f][1,2,4]triazolo[4,3-a][1,4]diazepin-6-yl)acetyl)piperidin-4-yl)methyl)piperazin-1-yl)methyl)phenyl)-5-(2,4-dihydroxyphenyl)-N-isopropyl-4H-1,2,4-triazole-3-carboxamide, trifluoroacetic acid]", "values": [
      {"measurement": "IC50", "setting": "MV4-11 cells; Homo sapiens, MV4-11", "result": "< 100", "unit": "nM"}
    ]},
    {"smiles": "CCc1cc(-c2nnc(C(N)=O)n2-c2ccc(CN3CCN(CC4CCN(C(=O)C[C@@H]5N=C(c6ccc(Cl)cc6)c6c(sc(C)c6C)-n6c(C)nnc65)CC4)CC3)cc2)c(O)cc1O", "note": "[Compound 120, (S)-4-(4-((4-((1-(2-(4-(4-chlorophenyl)-2,3,9-trimethyl-6H-thieno[3,2-f][1,2,4]triazolo[4,3-a][1,4]diazepin-6-yl)acetyl)piperidin-4-yl)methyl)piperazin-1-yl)methyl)phenyl)-5-(5-ethyl-2,4-dihydroxyphenyl)-4H-1,2,4-triazole-3-carboxamide hydrochloride]", "values": [
      {"measurement": "IC50", "setting": "MV4-11 cells", "result": "< 100", "unit": "nM"}
    ]},
    {"smiles": "CCc1cc(-c2nnc(C(N)=O)n2-c2ccc(CN3CCN(CC4CCN(C(=O)C[C@@H]5N=C(c6ccc(Cl)cc6)c6c(sc(C)c6C)-n6c(C)nnc65)CC4)CC3)cc2)c(O)cc1O", "note": "[Compound 121, (S)-4-(4-((4-((1-(2-(4-(4-chlorophenyl)-2,3,9-trimethyl-6H-thieno[3,2-f][1,2,4]triazolo[4,3-a][1,4]diazepin-6-yl)acetyl)piperidin-4-yl)methyl)piperazin-1-yl)methyl)phenyl)-5-(5-ethyl-2,4-dihydroxyphenyl)-4H-1,2,4-triazole-3-carboxamide hydrochloride]", "values": [
      {"measurement": "IC50", "setting": "MV4-11 cells", "result": "< 100", "unit": "nM"}
    ]},
    {"smiles": "CCCc1cc(-c2nnc(C(=O)NCCN3CCCCC3)n2-c2ccc(CN3CCN(CC4CCN(C(=O)C[C@@H]5N=C(c6ccc(Cl)cc6)c6c(sc(C)c6C)-n6c(C)nnc65)CC4)CC3)cc2)c(O)cc1O", "note": "[Compound 123, (S)-4-(4-((4-((1-(2-(4-(4-chlorophenyl)-2,3,9-trimethyl-6H-thieno[3,2-f][1,2,4]triazolo[4,3-a][1,4]diazepin-6-yl)acetyl)piperidin-4-yl)methyl)piperazin-1-yl)methyl)phenyl)-5-(2,4-dihydroxy-5-propylphenyl)-N-(2-(piperidin-1-yl)ethyl)-4H-1,2,4-triazole-3-carboxamide, trifluoroacetic acid]", "values": [
      {"measurement": "IC50", "setting": "MV4-11 cells; Homo sapiens, MV4-11", "result": "< 100", "unit": "nM"}
    ]},
    {"smiles": "Cc1cc(-c2nnc(C(=O)NCCN3CCCCC3)n2-c2ccc(CN3CCN(CC4CCN(C(=O)C[C@@H]5N=C(c6ccc(Cl)cc6)c6c(sc(C)c6C)-n6c(C)nnc65)CC4)CC3)cc2)c(O)cc1O", "note": "[Compound 124, (S)-4-(4-((4-((1-(2-(4-(4-chlorophenyl)-2,3,9-trimethyl-6H-thieno[3,2-f][1,2,4]triazolo[4,3-a][1,4]diazepin-6-yl)acetyl)piperidin-4-yl)methyl)piperazin-1-yl)methyl)phenyl)-5-(2,4-dihydroxy-5-methylphenyl)-N-(2-(piperidin-1-yl)ethyl)-4H-1,2,4-triazole-3-carboxamide, trifluoroacetic acid]", "values": [
      {"measurement": "IC50", "setting": "MV4-11 cells; Homo sapiens, MV4-11", "result": "< 100", "unit": "nM"}
    ]},
    {"smiles": "CCNC(=O)c1noc(-c2cc(C(C)C)c(O)cc2O)c1-c1ccc(CN2CCN(CC3CCN(C(=O)C[C@@H]4N=C(c5ccc(Cl)cc5)c5c(sc(C)c5C)-n5c(C)nnc54)CC3)CC2)cc1", "note": "[Compound 126, (S)-4-(4-((4-((1-(2-(4-(4-chlorophenyl)-2,3,9-trimethyl-6H-thieno[3,2-f][1,2,4]triazolo[4,3-a][1,4]diazepin-6-yl)acetyl)piperidin-4-yl)methyl)piperazin-1-yl)methyl)phenyl)-5-(2,4-dihydroxy-5-isopropylphenyl)-N-ethylisoxazole-3-carboxamide hydrochloride]", "values": [
      {"measurement": "IC50", "setting": "MV4-11 cells; Homo sapiens, MV4-11", "result": "< 100", "unit": "nM"}
    ]},
    {"smiles": "CC(=O)N1CCC(CN2CCN(Cc3ccc(-n4c(O)nnc4-c4cc(C(C)C)c(O)cc4O)cc3)CC2)CC1", "note": "[HSP90 binder, 1-(4-((4-(4-(3-(2,4-dihydroxy-5-isopropylphenyl)-5-hydroxy-4H-1,2,4-triazol-4-yl)benzyl)piperazin-1-yl)methyl)piperidin-1-yl)ethan-1-one, reference compound]", "values": [
      {"measurement": "Percentage BRD4 degradation vs untreated", "setting": "BRD4", "result": "C (Degradation < 10%)"},
      {"measurement": "BRD4 degradation (in words)", "setting": "BRD4; flow cytometry", "result": "no substantial BRD4 degradation was observed"}
    ]},
    {"smiles": "Cc1sc2c(c1C)C(c1ccc(Cl)cc1)=N[C@@H](CC(=O)NCCCCNC(=O)COc1cccc3c1C(=O)N(C1CCC(=O)NC1=O)C3=O)c1nnc(C)n1-2", "note": "(some centres unmarked) [dBET1]", "values": [
      {"measurement": "BRD3 (% of control)", "setting": "BRD3; 3 nM", "result": "89.7 % of control"},
      {"measurement": "BRD3 (% of control)", "setting": "BRD3; 10 nM", "result": "43.2 % of control"},
      {"measurement": "BRD3 (% of control)", "setting": "BRD3; 30 nM", "result": "14.5 % of control"},
      {"measurement": "BRD3 (% of control)", "setting": "BRD3; 100 nM", "result": "1.4 % of control"},
      {"measurement": "BRD3 (% of control)", "setting": "BRD3; 300 nM", "result": "0.3 % of control"},
      {"measurement": "BRD2 (% of control)", "setting": "BRD2; 3 nM", "result": "96.4 % of control"},
      {"measurement": "BRD2 (% of control)", "setting": "BRD2; 10 nM", "result": "94.9 % of control"},
      {"measurement": "BRD2 (% of control)", "setting": "BRD2; 30 nM", "result": "55.1 % of control"},
      {"measurement": "BRD2 (% of control)", "setting": "BRD2; 100 nM", "result": "9.3 % of control"},
      {"measurement": "BRD2 (% of control)", "setting": "BRD2; 300 nM", "result": "0.5 % of control"}
    ]}
  ]
}
